Results taken from patent US9205156B2, “Molecular imaging agents” (HADASIT MEDICAL RESEARCH SERVICES & DEVELOPMENT LIMITED, priority 2010, dated 2015).
Several values for one entry are separate records, joined by “and”; a condition that tells them apart may be missing. Equal values may be shown once.

What was measured:
[1] = Tracer biodistribution studies in mice (γ-counter, % ID/g)
Method: Compounds [^11C]-1, [^11C]-2, [^11C]-3, [^11C]-4, [^11C]-6, [^11C]-7 and Technetium-99 m methoxy isobutyl isonitrile ([^99mTc]MIBI) biodistribution studies were carried out with BALB/c Ola/Hsd mice (7-8 week). Tracers were injected in a 10% EtOH/saline solution as vehicle. Either [^11C]-1 (62±15 μCi; […]; 122±13 μL), [^11C]-2 (68±12 μCi; 2.5±0.4 MBq; 188±1.3 μL), [^11C]-3 (70±17 μCi; 2.6±0.6 MBq; 185±5 μL), [^11C]-4 (18±5 μCi; […]; 195±2.2 μL or 1.24±0.93 MBq, 229±63 μL), [^11C]-6 (1.95±0.21 MBq, 83±41 μL), [^11C]-7 (2.01±0.16 MBq, 169±73 μL) or [^99mTc]mibi (14.2±1.7 μCi; 3.6±0.4 MBq; 97.7±12.5 μL) were injected via the lateral vein. At allotted time points (1, 5, 10, 15 min), blood was drawn from the orbital sinus, mice were sacrificed by cervical dislocation and selected organs (heart, lungs, liver and kidney) were excised, weighed and measured for their radioactive content using a γ-counter (1480 Wizard 3″). Distribution of activity was calculated as the percentage of injected dose per gram of organ (% ID/g). Activity uptake ratios of various organs were calculated by dividing the corresponding calculated % ID/gs.
Distribution of activity was calculated as the percentage of injected dose per gram of wet tissue (% ID/g). Activity uptake ratios of various organs were calculated by dividing the corresponding calculated % ID/g. Heart standardized uptake values (SUVs) were calculated by dividing the % ID in the heart of each rat by the percentage of heart weight of the total body weight of the animal.

[2] = Biodistribution of [11C]-4 in rats (γ-counter, % ID/g, heart SUV); type: in vivo, SD/Hsd rats
Method: Similar to the biodistribution studies in mice, [^11C]-4 was injected into male SD/Hsd rats (293±9 g) in a 10% EtOH/saline solution (3.1±0.5 MBq; 530±134 μL) via the lateral tail vein. At the allotted time points, blood was drawn, animals were sacrificed, and selected organs were excised, weighed and measured for their radioactive content.

[3] = Micro-PET scans in rats, time activity curves; type: in vivo, Wistar rats; conditions: microPET; for myocardial radioactivity uptake: isoflurane anesthesia
Method: Micro-PET scans were also carried out using healthy Wistar rats (154±47 g). Anesthesia was induced, and thereafter maintained by 3% and 1%-2.5% isoflurane in O2, respectively. During the scans, rats were maintained normothermic using a heating blanket. All CT and PET acquisitions were carried out using the Inveon™ multimodality PET-CT small animal-dedicated scanner (Siemens Medical Solutions USA Inc.). Rats were positioned in the scanner so that the heart was in the center of the field of view. Following a CT scan, PET list-mode acquisition was started at the time of injection of [^11C]-4 (14.3±5.7 Mbq/rat, n=4) or [^13N]—NH3 (81.1±20.4 Mbq/rat, n=6) in the lateral tail vein. Acquisitions continued for 60 min or 40 min post-injection, for [^11C]-4 or [^13N]—NH3, respectively.
The list-mode emission scans were sorted into 29 (6×10, 8×30, 5×60, 10×300 sec) and 24 (12×10, 6×30, 5×300, 1×600 sec) dynamic frames, for [^11C]-4 and [^13N]—NH3 respectively. Emission sinograms were normalized and corrected for attenuation, dead time and decay. Image reconstruction was performed using Fourier rebinning and two dimensional ordered-subsets expectation maximization (2D-OSEM), with a voxel size of 0.776×0.776×0.796 mm^3.
Image analysis and quantification of radioactivity concentration in regions of interest (ROIs) were performed using Inveon Research Workplace 3.1 (Siemens Medical Solutions USA Inc.). Delineation of ROIs was performed by manual segmentation, and the corresponding time activity curves (TACs) were calculated.

[4] = PET/CT studies in a porcine model of LCx coronary artery occlusion (rest and adenosine stress); type: in vivo, pigs
Method: Following a constriction of the left circumflex coronary artery (LCxA) via insertion and manipulation of a stent, stress and rest dynamic-PET studies were performed in three pigs. Pigs underwent dynamic PET acquisition following injections of [^11C]-4 both at rest and under pharmacological stress [(207±30 MBq in 10±4 mL) and (203±11 MBq in 16±1 mL), respectively]. Images were acquired for each animal at rest and stress on the same day, allowing a minimum of 5 half-lives (approximately 2 h for carbon-11 and 1 h for nitrogen-13) in between injections to minimize crosstalk. Pharmacological stress was induced by an IV infusion of adenosine (500 μg×min^−1×kg^−1 body weight), beginning 3 min prior to injection of the tracers, and maintained for an additional 3 min. When necessary, hypotension was prevented by concomitant IV administration of dobutamine (2 μg×min^−1×kg^−1 body weight).
In order to prevent complete occlusion in the third pig, the angiography and stent insertion were carried out in the PET/CT room, thus minimizing the animal's movement, and the animal was given higher doses of heparin (a sum of 30,000 units throughout the experiment) based on Activated Clotting Time (ACT) test. In the third pig, the adenosine stress protocol was performed twice: once with [^13N]NH3 (700 MBq in 1 mL) injection, and 2.5 h later, the adenosine stress protocol was repeated with [^11C]-4 injection.
To prevent blood clotting, pigs were treated with aspirin (250-300 mg) and plavix (150-300 mg) on the day before the procedure. On the day of the study, the animals were anesthetized using ketamine/xylazine (15 mg/kg/2 mg/kg) and Butorphanol 0.2 mg/kg IM as premedication. For induction, ketamin/diazepam (4 mg/kg/0.02 mg/kg) was administered intravenously. Animals were ventilated and anesthesia, maintained using isoflorane 2% inhalation (via tracheal tube). Animals were monitored continuously for ECG, body temperature, O2 saturation, blood pressure, pulse and breathing. Vascular access was prepared in the left and right ear veins for drug and tracer administration, and a catheter was placed in the left femoral artery for stent insertion and arterial blood pressure measurements.
Following anesthesia, the pigs underwent cannulation of the left femoral artery with a 7 Fr introducer sheath and a 7 Fr hockeystick catheter (Cordis) was positioned in the left main coronary artery. Partial LCx coronary artery occlusion was induced via partial inflation of the proximal component of a JOSTENT Graftmaster (Abbott Vascular, USA) inside the LCx coronary artery, creating a funnel-shaped structure. Before insertion of the stent, the 3.5×16 mm JOSTENT was partially crimped over a 3.5 mm balloon with its distal third beyond the inflating balloon. Inflation of the balloon dilates the crimped part leaving a distal cone that is not dilated with an orifice approximately 1 mm in diameter. Thus, when deployed in an artery that is 3.5 mm in diameter, a partial, yet significant stenosis was established.
Coronary angiography was performed with 20-30 mL of contrast media and 3.5 mm wide and >20 mm long segment of the LCx artery that was free of major branches. The stent system was brought to the assigned segment over a floppy 0.014 coronary wire (ASAHI). The balloon was inflated with a pressure of 14-16 atmospheres (10-15 seconds) and the balloon was then deflated and withdrawn. Angiography was then performed in two different projections to ascertain that the cone-shaped stent enabled preserved continuous flow through its patent distal orifice. To ensure partial stenosis rather than complete occlusion of the artery during the PET imaging, a repeated angiography was taken at the end of imaging.
Animals were placed in a supine position with the heart in the center of the field of view of the PET/CT scanner. Imaging was performed on a Discovery ST PET/CT tomograph (GE Healthcare, Milwaukee, Wis.), with intrinsic spatial resolution: in-plane 6.2 mm, axial 5.0 mm. […]

[5] = literature reference value; cited from earlier work
log P (lipophilicity) = type: physicochemical; conditions: n=3, data not shown
[6] = BALB/c Ola/Hsd, mouse, in vivo, 1 min
[7] = BALB/c Ola/Hsd, mouse, in vivo, 5 min
[8] = BALB/c Ola/Hsd, mouse, in vivo, 10 min
[9] = BALB/c Ola/Hsd, mouse, in vivo, 15 min
[10] = mice, time point not stated (within 15 min period)

In the case of `C[N+]([11CH3])(c1ccccc1)c1ccccc1` [[^11C]-4, [^11C]dimethyl-diphenyl-ammonium iodide], the “radioactivity uptake in the heart” value [1, 6] is reported as 46.6 % ID/g, the “heart/blood activity uptake ratio” value [1, 7] is reported as 44 fold and the “radioactivity uptake in the heart” value [1, 7] is reported as 50.4 % ID/g. For the same molecule, the “heart/blood activity uptake ratio” value [1, 8] was 61 fold, the “radioactivity uptake in the heart” value [1, 8] was 62.5 % ID/g and the “Heart SUV” value [1, 9] was 9.7±0.5. For the same molecule, the “radioactivity uptake in the heart” value [1, 9] was 44.5 % ID/g, the “heart uptake compared to [99mTc]-MIBI” value ([1]; mouse, in vivo) was “twice as high” and the “stable heart SUVs” value [2] was “about 15”. The heart/blood activity ratios ([2]; 5-15 min after injection) was 67.5-88.5, the heart/kidneys uptake ratio ([2]; 10 min after injection) was 3.5 and the heart/liver uptake ratio ([2]; 10 min after injection) was 3.2. The heart/lungs uptake ratio ([2]; 10 min after injection) was 2.4, the “Heart SUV” value ([2]; 15 min post injection) was 15.6±0.4 and the heart/blood activity ratio ([2]; 15 min post injection) was “about 90”. The “radioactivity in the heart compared to the lungs, kidneys and the liver” value ([2]; 15 min post injection) was “approximately 5 fold”, the “radioactivity uptake in the heart” value ([2]; throughout the first 15 min) was “approximately 5 % ID/g” and the “kidney radioactivity uptake, initial peak value” [3] was 6 % ID/mL. For the same molecule, the kidney radioactivity uptake ([3]; 20 min after injection) was ~1 % ID/mL, the myocardial radioactivity uptake [3] was ~3 % ID/mL and the “myocardial perfusion image finding, rest and stress” value ([4]; pig 1, complete stent occlusion) was “very severe, non-filling defect”. For the same molecule, the “myocardial perfusion image finding, rest and stress” value ([4]; pig 2, acute myocardial infarction) was “severe, fixed, inferior wall defect, with partial inferolateral wall reversibility”, the “myocardial perfusion image finding at adenosine stress” value ([4]; pig 3, partial LCx stenosis) was “severe inferolateral defect” and the “myocardial perfusion image finding at rest” value ([4]; pig 3, partial LCx stenosis) was “filling in of that defect”. The “time to minimum of blood pool activity” value ([4]; pig 3, time-activity curves) was 5 min and the “time to plateau of cardiac accumulation” value ([4]; pig 3, time-activity curves) was “approximately 10 min”.
With “[^11C]tetramethyl-ammonium iodide [[^11C]-1]” the “cardiac uptake, folds lower than in the kidneys” value ([1]; mice) was 9 folds, the “cardiac uptake, folds lower than in the liver” value ([1]; mice) was 3 folds and the “activity accumulation in the heart over all observed time points” value ([1]; mice, 1-15 min post injection) was 0.7-1.1 % ID/g. For the same molecule, the “heart/blood activity uptake ratio” value [1, 10] was “less than 6 fold” and the “log P” value [5] was −3.92.
For `[99Tc].[C-]#[N+]CC(C)(C)OC.[C-]#[N+]CC(C)(C)OC.[C-]#[N+]CC(C)(C)OC.[C-]#[N+]CC(C)(C)OC.[C-]#[N+]CC(C)(C)OC.[C-]#[N+]CC(C)(C)OC` [[^99mTc]MIBI, Technetium-99 m methoxy isobutyl isonitrile, reference compound], the “radioactivity uptake in the heart” value ([1]; mice, 1 min post injection) was 24 % ID/g, the “radioactivity uptake in the heart” value ([1]; mice, 5 min post injection) was 20.5 % ID/g and the “radioactivity uptake in the heart” value ([1]; mice, 10 min post injection) was 21.4 % ID/g. The “heart/blood activity uptake ratio” value ([1]; mice, 15 min post injection) was 45.1 fold and the “radioactivity uptake in the heart” value ([1]; mice, 15 min post injection) was 13.8 % ID/g.
For `C[N+](C)([11CH3])c1ccccc1` [[^11C]-2, [^11C]trimethyl-phenyl-ammonium iodide], the “radioactivity uptake in the heart” value ([1]; mice, 1 min post injection) was 29.5 % ID/g, the “heart/blood activity uptake ratio” value ([1]; mice, 5 min post injection) was 15.5 fold and the “heart/liver activity uptake ratio” value ([1]; mice, 5 min post injection) was 1.9. The “heart/lungs activity uptake ratio” value ([1]; mice, 5 min post injection) was 2.6, the “radioactivity uptake in the heart” value ([1]; mice, 5 min post injection) was 26.8 % ID/g and the “heart/blood activity uptake ratio” value ([1]; mice, 10 min post injection) was 13.3 fold and ~13 fold. The “radioactivity uptake in the heart” value ([1]; mice, 10 min post injection) was 18.5 % ID/g and ~20 % ID/g, the “radioactivity uptake in the heart” value ([1]; mice, 15 min post injection) was 13.9 % ID/g and the “heart/blood activity uptake ratio” value [1, 10] was 16 fold. For the same molecule, the “log P” value [5] was −2.74.
With `CN(C)c1ccc([N+](C)(C)[11CH3])cc1` [[^11C]-3, [^11C](4-dimethylamino-phenyl)-trimethyl-ammonium iodide] the “radioactivity uptake in the heart” value [1, 6] was 48.7 % ID/g, the “radioactivity uptake in the heart” value [1, 7] was 47.7 % ID/g and the “radioactivity uptake in the heart” value [1, 8] was 40.15 % ID/g. For the same molecule, the “radioactivity uptake in the heart” value [1, 9] was 28.5 % ID/g and the logP (log P (lipophilicity)) was -0.93 ± 0.1.
For `[13NH3]` [[^13N]NH3, [^13N]ammonia, reference compound], the “kidney radioactivity uptake, initial peak value” [3] was 3 % ID/mL, the myocardial radioactivity uptake [3] was ≤ 1.7 % ID/mL and the “myocardial perfusion image finding at adenosine stress” value ([4]; pig 3, partial LCx stenosis) was “severe inferolateral defect”.
In the case of `Cc1cccc([N+](C)(C)[11CH3])c1` [[^11C]-6, [^11C]Methyl-dimethyl-m-tolyl-ammonium iodide], the “heart/blood activity uptake ratio” value ([1]; mice, 10 min post injection) is reported as ~13 fold and the “radioactivity uptake in the heart” value ([1]; mice, 10 min post injection) is reported as ~20 % ID/g.
In the case of `C[N+](C)([11CH3])c1cccc2ccccc12.O=S(=O)([O-])C(F)(F)F` [[^11C]-7, [^11C]Methyl-dimethyl-1-naphtylammonium trifluoro-methane-sulfonate], the “radioactivity uptake in the heart” value ([1]; mice, 10 min post injection) is reported as ~33 % ID/g and the “heart/blood activity uptake ratio” value [1, 10] is reported as ≤ 20 fold.
